Measured values reported in article PMC11067372, “Evaluation of the antiplasmodial efficacy of synthetic 2,5-diphenyloxazole analogs of compounds naturally derived from Oxytropis lanata” (International Journal for Parasitology: Drugs and Drug …, 2024).
Where two headings read alike, the source gives them in different places.

How the values were obtained:
[1] = tested on: P. falciparum 3D7; assay: IC50 speed assay (24, 48, 72 h); type: cell-based, Plasmodium falciparum; conditions: for Speed of action (IC50 speed assay): IC50 at 24, 48, 72 h compared; for IC50: Plasmodium falciparum
Experimental: (§1) The D-sorbitol method (CAS: 50-70-4, Wako, Osaka, Japan) was employed to synchronize parasites, resulting in the attainment of ≥90% ring-stage parasites. These synchronized parasites were then utilized for the experiments within a 2-h window. The assay was performed as follows. First, 50 μL of synchronized parasites with 0.5% parasitemia and 2% hematocrit were added to individual wells of a 96-well plate. Then, 50 μL of the test compounds was introduced to each well. […] Wells containing only test compounds and erythrocytes were included for background correction. […] After the designated incubation time, 100 μL of lysis buffer containing 0.02% (v/v) SYBR Green I was added to each well, the contents of the well were mixed by pipetting, and the plate was incubated in the dark at room temperature for 2 h. […] This assay was repeated four times at each concentration, and the resulting inhibitory values represent the average from three independent trials.

[2] = In vitro toxicity to human cells (cell viability assay); type: cell-based; conditions: human foreskin fibroblasts (HFFs), average ± SD, three independent experiments
Experimental: HFF cells are selected for cytotoxicity testing in this study, providing a physiologically relevant model for the evaluation of drug interactions with human cells. […] This designation makes them a suitable model for the investigation of cellular processes and their sensitivity to toxic substances, which is crucial for the early identification of potential adverse effects of drugs during the development process.
(§2) The IC50 or CC50 values were determined from three independent experiments by plotting the logarithmic concentration of the compound against the percent parasite inhibition or cell growth inhibition, respectively. Nonlinear regression analysis was conducted using GraphPad Prism 10 (GraphPad Software, Inc., La Jolla, CA, USA). Comparisons between groups were evaluated using either one-way or two-way ANOVA followed by Tukey's or Fisher's multiple comparisons tests. A p-value of <0.05 was considered to indicate statistical significance and is denoted by an asterisk or a symbol. The meaning of each symbol is specified in the corresponding figure legend alongside the name of the employed test.

[3] = tested on: P. falciparum K1; assay: In vitro inhibition of P. falciparum K1 (SYBR Green I-based fluorescence assay); type: cell-based; conditions: Plasmodium falciparum, read-out: IC50 P. falciparum K1
Experimental: (§3) The cultures were maintained in an incubator under specific conditions: 37 °C under 5% CO2 and 5% O2.
as §1
as §2, with “A p-value of <0.05 was considered to indicate statistical significance and is denoted by an asterisk or a symbol.” left out

[4] = tested on: P. falciparum 3D7; assay: Stage-specific assay on ring and schizont stages (SYBR Green I, 24 h); type: cell-based, Plasmodium falciparum; conditions: eight concentrations from 100-fold IC50
Experimental: (§4) To ensure uniformity, the parasites underwent a rigorous synchronization process using a two-step sorbitol treatment procedure. This synchronized parasite population was harnessed within a 2-h window for the ring stage, 8–10 h for the trophozoite stage, and 24–26 h for the schizont stage. Subsequent to sorbitol treatment, early trophozoites could be obtained within 6–8 h after the initial sorbitol treatment (within 20 h of development), while early schizonts could be obtained after an additional 16 h of incubation (within 36 h of development). Beyond 36 h, the schizonts mature, causing the rupture of red blood cells (RBCs) and the consequent release of merozoites, which promptly infect new RBCs.
Wells containing only the test compounds and erythrocytes were included to correct for background activity. The 96-well plates were incubated for 24 h at 37 °C in an atmosphere of 5% CO2 and 5% O2. The growth of P. falciparum 3D7 was detected using a SYBR Green I-based fluorescence assay.

[5] = tested on: P. falciparum 3D7; assay: Stage-specific microscopy examination (ring, trophozoite, schizont); type: cell-based, Plasmodium falciparum; conditions: ring, trophozoite, schizont stages, artemisinin and chloroquine at all concentrations, Compounds 31 and 32 at 100 times IC50
Experimental: as §4
The negative control group consisted of cultures treated solely with complete medium and was designated the no treatment (NT) group. This analysis was repeated three times at each concentration. Following a 24-h incubation period, the culture in a 96-well plate was centrifuged at 1300 g for 5 min to settle down the iRBC; then, the supernatants were removed, and the iRBCs were washed with fresh media at the same volume as the initial culture. The centrifugation and washing were repeated 3 times, allowing the compound to be diluted by approximately 1000 times. Subsequently, thin blood smears from each treatment group were prepared using 1 μL of settled iRBCs. The proportion of parasites affected by the drug, including those with both abnormal and retained morphologies, was calculated by examining 100 parasites and counting the number displaying irregular development. Subsequently, the number of abnormal parasites was divided by the total count and then multiplied by 100 to obtain a percentage. The parameters used to define normal and abnormal morphologies can be found in Table S3 and Fig. S1.

[6] = tested on: P. falciparum 3D7; assay: In vitro inhibition of P. falciparum 3D7 (SYBR Green I-based fluorescence assay); type: cell-based, Plasmodium falciparum; conditions: Plasmodium falciparum, 3D7, 72 h, read-out: IC50 P. falciparum 3D7
Experimental: as §3, §1
as §2, with “A p-value of <0.05 was considered to indicate statistical significance and is denoted by an asterisk or a symbol.” left out

[7] = tested on: P. yoelii 17XNL; type: in vivo; conditions: P. yoelii 17XNL-infected mice; 20 mg/kg/day
Experimental: Male C57BL/6 mice, aged eight weeks, were obtained from Japan CLEA (Tokyo, Japan) and housed with six per cage in each group. These mice were kept under conditions of 24 °C, 50% relative humidity, and a light-dark cycle of 8 a.m. to 8 p.m. Access to drinking water and food (CLEA Rodent Diet CE-2; Japan CLEA, Tokyo, Japan) was unrestricted. Prior to experimentation, P. yoelii 17XNL was recovered from cryopreserved erythrocyte stocks via passage in mice. […]. Parasitemia levels were evaluated […] by collecting 2 μL of blood from the mouse tail for thin blood smear preparation. Treatment was initiated upon reaching a parasitemia level of 1%. […]. Parasitemia in infected mice was observed daily by preparing Giemsa-stained thin blood smears (up to 30 dpi). Hematocrit levels were measured every other day using a Celltac-α MEK-6550 (Nihon Kohden, Tokyo, Japan), with 10 μL of blood collected from the mouse tail for each assessment. The animals were handled and treated in accordance with the Guide for the Care and Use of Laboratory Animals by the Ministry of Education, Culture, Sports, Science, and Technology, Japan. Ethical permission for the animal experiment protocols was secured under permit numbers 21–35 and 23–90 from the ethical committee of Obihiro University of Agriculture and Veterinary Medicine.
The median point within this range was selected to maintain a balance between efficacy and safety. Furthermore, a modified Peter's suppression test was utilized to assess the efficacy of antimalarial drugs ([Ager, 1984]; [Peters et al., 1975]). The treatment and observation period were initially set for 4 days. […] […]. […] These findings highlight the effect of the 20 mg/kg/day dosage of Compounds 31 and 32 in reducing parasitemia without causing side effects.

IC50 ([1]; P. falciparum 3D7, 24 h incubation, read-out: IC50 24 h)	IC50 ([1]; P. falciparum 3D7, 48 h incubation, read-out: IC50 48 h)	IC50 ([3]; multidrug-resistant strain K1, 72 h incubation, average ± SD, three independent experiments)	Compound	Speed of action (IC50 speed assay) ([1]; P. falciparum 3D7)	CC50 [2]	Stage specificity (ring and schizont stages) [4]	Parasite morphology after 24 h treatment [5]	IC50 ([1]; 3D7, 24 h, read-out: IC50 24 h)	IC50 ([1]; 3D7, 48 h, read-out: IC50 48 h)	IC50 ([1]; 3D7, 72 h, read-out: IC50 72 h)	IC50 [6]	Treatment duration required to decrease the parasitemia levels from the peak of infection [7]	IC50 ([3]; K1, 72 h)
0.037 ± 0.005 µM	0.023 ± 0.002 µM	0.019 ± 0.002 µM	C[C@@H]1CC[C@H]2[C@@H](C)C(=O)O[C@@H]3O[C@@]4(C)CC[C@@H]1[C@]32OO4 [Artemisinin, artemisinin, reference compound]	fast-acting	153 ± 30.8 µM	potency against ring and schizont stages	death and shrinkage of the parasite at all stages						
			CCN(CC)CCCC(C)Nc1ccnc2cc(Cl)ccc12 (stereo not shown) [Chloroquine (diphosphate), chloroquine diphosphate, reference compound]	fast-acting		potency against ring and schizont stages	death and shrinkage of the parasite at all stages	0.046 ± 0.003 µM	0.022 ± 0.004 µM	0.026 ± 0.004 µM	0.026 ± 0.003 µM	7 days	0.784 ± 0.073 µM
